A word on the Ki: it is the dissociation constant of the complex between target and ligand, obtained from inhibition or displacement.

This is an account of results in article PMC6295868, “Hybrid Inhibitors of Malarial Dihydrofolate Reductase with Dual Binding Modes That Can Forestall Resistance” (ACS Medicinal Chemistry Letters, 2018).

The nature of one series: in vitro. To be noted: African green monkey.
Series [1] deals with surrogate cells (BL21(DE3) E. coli) expressing wild-type PfDHFR. Kind of series: Bacterial surrogate growth, cells expressing wild-type PfDHFR. The series is classed as cell-based, Escherichia coli. The conditions noted are these: 100 µM BT1, M9 minimal medium, trimethoprim.
The test system of series [2] is P. falciparum K1CB1 (NRNI). The experiment in a line: microbe, parasite or virus in culture. The series is classed as cell-based. To be noted: Plasmodium falciparum, read-out: IC50 P. falciparum K1CB1 (NRNI).
The test system of another series is P. falciparum W2 (IRNI). The experiment in a line: microbe, parasite or virus in culture. The format is cell-based. To be noted: Plasmodium falciparum, W2, read-out: IC50 P. falciparum W2 (IRNI).
The target in the next series is T1, hDHFR (Homo sapiens, UniProt P00374).
T1 sequence (P00374 1-187): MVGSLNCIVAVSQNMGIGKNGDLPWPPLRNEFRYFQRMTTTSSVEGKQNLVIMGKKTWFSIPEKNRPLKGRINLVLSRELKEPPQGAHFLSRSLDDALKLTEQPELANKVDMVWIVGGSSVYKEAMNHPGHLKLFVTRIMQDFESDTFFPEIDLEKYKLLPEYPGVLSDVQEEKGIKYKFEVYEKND
The conditions noted are these: read-out: Ki hDHFR.

In series [3] the test system is surrogate cells (BL21(DE3) E. coli) expressing N51I+C59R+S108N+I164L quadruple mutant PfDHFR. Kind of series: Bacterial surrogate growth, cells expressing quadruple mutant PfDHFR. The format is cell-based, Escherichia coli. To be noted: 100 µM BT1, M9 minimal medium, trimethoprim.
Series [4] deals with P. falciparum V1/S (IRNL). Kind of series: microbe, parasite or virus in culture. The series is classed as cell-based. To be noted: Plasmodium falciparum, read-out: IC50 P. falciparum V1/S (IRNL).
The subject of series [5] is P. falciparum CSL-2 (NRNL). Kind of series: microbe, parasite or virus in culture. The series is classed as cell-based. The conditions noted are these: Plasmodium falciparum, read-out: IC50 P. falciparum CSL-2 (NRNL).
The subject of series [6] is P. falciparum TM4/8.2 (NCSI). Kind of series: microbe, parasite or virus in culture. The format is cell-based. The conditions noted are these: Plasmodium falciparum, read-out: IC50 P. falciparum TM4/8.2 (NCSI).
Series [7] deals with wild-type and Pyr-resistant mutant P. falciparum. Kind of series: microbe, parasite or virus in culture. The format is cell-based. The conditions noted are these: Plasmodium falciparum, read-out: IC50 against both wild-type and Pyr-resistant mutant P. falciparum.
For series [8], the system named is P. falciparum V1/S (IRNL). The conditions noted are these: ± SD; cited from earlier work.
The test system of the next series is Vero cells. More on the design: method as in PMID 11881993. The conditions noted are these: IC50 against Vero cells; read-out: cytotoxicity Vero cells; cited from earlier work.

Where two headings read alike, the source gives them in different places. A value given as a limit tells only on which side of the number the result lay.

Consider `CCc1nc(N)nc(N)c1OCCCOc1cccc(-c2c(N)nc(N)nc2CC)c1` [BT1], for which the IC50 in “in vitro” came to 5940 ± 650 nM; in series [2], 220 ± 60 nM; in the series on P. falciparum W2 (IRNI) it was 250 ± 50 nM; in [4], 1720 ± 690 nM; in series [5] it was 510 ± 80 nM; in series [6], 290 ± 50 nM. Further, the IC50 in series [7] is less than 5000 nM. Also, the “growth inhibition of surrogate cells” value in series [1] and in [3] was “completely inhibitory” each time. For the same compound, on hDHFR, the Ki came to 22.5 ± 2.9 nM.

For `Cc1nc(N)nc(N)c1OCCCOc1cc(Cl)c(Cl)cc1Cl` [P65, reference compound], the IC50 is 4030 ± 410 nM in the series “in vitro”, 1920 ± 530 nM in [2], 2270 ± 650 nM in the series on P. falciparum W2 (IRNI) and 4400 ± 2100 nM in series [5]. The Ki at hDHFR was found to be 47.6 ± 4 nM.

Turning to `CCc1nc(N)nc(N)c1-c1ccc(OCCCOc2ccc(-c3c(N)nc(N)nc3CC)cc2)cc1` [BT3S], the IC50 worked out at 2530 ± 440 nM in the series “in vitro”; 330 ± 38 nM in series [2]; 300 ± 30 nM with P. falciparum W2 (IRNI); 330 ± 23 nM in series [4]; 310 ± 20 nM in series [5]; 35 ± 3.3 nM in series [6]. For the same compound, the inhibition constant Ki on hDHFR was found to be 33.6 ± 10.6 nM.

As for `CCc1nc(N)nc(N)c1-c1ccc(Cl)cc1` [Pyr, pyrimethamine, reference compound], the IC50 (in series [8]; in “in vitro”) was more than 100000 nM in each case.

Regarding `CCc1nc(N)nc(N)c1OCCCOc1ccc(-c2c(N)nc(N)nc2CC)cc1` [BT2S], the IC50 was 6300 ± 1500 nM in the series “in vitro”; 1840 ± 310 nM in [2]; 2350 ± 100 nM in the series on P. falciparum W2 (IRNI); 4400 ± 710 nM in series [4]; 3950 ± 360 nM in series [5]; 63 ± 14 nM in series [6]. In addition, the Ki at hDHFR turned out to be 20.2 ± 3.3 nM.

Turning to `CCc1nc(N)nc(N)c1-c1cccc(Cl)c1` [P30], the IC50 in the series with Vero cells is 7000 nM.

With `CCc1nc(N)nc(N)c1OCCCOc1ccc(-c2c(N)nc(N)nc2CC)cc1` [BT2], the Ki on hDHFR stood at 18.1 ± 1.3 nM.
